Measured values reported in the supplement of paper PMC10307832.

Legend:
Experiment in all cases: relative viability (nuclei count vs DMSO), 5 days (fraction); higher = more cells survive
[1] = compound: COc1cc([C@@H]2c3cc4c(cc3[C@@H](O[C@@H]3O[C@@H]5CO[C@@H](C)O[C@H]5[C@H](O)[C@H]3O)[C@H]3COC(=O)[C@H]23)OCO4)cc(OC)c1O [Etoposide] + C[C@@H](Oc1cc(-c2cnn(C3CCNCC3)c2)cnc1N)c1c(Cl)ccc(F)c1Cl [Crizotinib] (partner 1 µM)
Outline: (§1)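 Lung cancer cell lines in 1536-well plates were dosed by pin tool the day after seeding, either with one drug alone or with a fixed anchor-drug dose plus five library-drug doses (not always all listed) in √10 steps. After 5 days, cells were fixed and their nuclei stained in one step (final 0.05% Triton X-100, 1% formaldehyde, 1 ug/ml Hoechst), then counted on 4× images. Relative viability is the nuclei count in treated wells divided by that in vehicle wells. Values are medians of duplicate plates.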

[2] = compound: CC1=C(N=C(N=C1N)[C@H](CC(=O)N)NC[C@@H](C(=O)N)N)C(=O)N[C@@H]([C@H](C2=CN=CN2)OC3C(C(C(C(O3)CO)O)O)OC4C(C(C(C(O4)CO)O)OC(=O)N)O)C(=O)N[C@H](C)[C@H]([C@H](C)C(=O)N[C@@H]([C@@H](C)O)C(=O)NCCC5=NC(=CS5)C6=NC(=CS6)C(=O)NCCC[S+](C)C)O [Bleomycin] + O=C(c1cc(Cc2n[nH]c(=O)c3ccccc23)ccc1F)N1CCN(C(=O)C2CC2)CC1 [Olaparib] (partner 8 µM); conditions: main component drawn
Outline: as §1

[3] = compound: CC1=C(N=C(N=C1N)[C@H](CC(=O)N)NC[C@@H](C(=O)N)N)C(=O)N[C@@H]([C@H](C2=CN=CN2)OC3C(C(C(C(O3)CO)O)O)OC4C(C(C(C(O4)CO)O)OC(=O)N)O)C(=O)N[C@H](C)[C@H]([C@H](C)C(=O)N[C@@H]([C@@H](C)O)C(=O)NCCC5=NC(=CS5)C6=NC(=CS6)C(=O)NCCC[S+](C)C)O [Bleomycin] + NC(=O)Nc1cc(-c2cccc(F)c2)sc1C(=O)N[C@H]1CCCNC1 [AZD7762] (partner 0.2 µM); conditions: main component drawn
Outline: as §1

[4] = compound: COc1cc([C@@H]2c3cc4c(cc3[C@@H](O[C@@H]3O[C@@H]5CO[C@@H](C)O[C@H]5[C@H](O)[C@H]3O)[C@H]3COC(=O)[C@H]23)OCO4)cc(OC)c1O [Etoposide] + COc1cc2c(Oc3ccc(NC(=O)C4(C(=O)Nc5ccc(F)cc5)CC4)cc3F)ccnc2cc1OCCCN1CCOCC1 [Foretinib] (partner 0.25 µM)
Outline: as §1

Cell Line | relative viability ([1]; first compound 0.01 µM) | relative viability ([1]; first compound 0.03162 µM) | relative viability ([1]; first compound 0.1 µM) | relative viability ([1]; first compound 0.3162 µM) | relative viability ([1]; first compound 1 µM) | relative viability ([2]; first compound 0.01 µM) | relative viability ([2]; first compound 0.03162 µM) | relative viability ([2]; first compound 0.1 µM) | relative viability ([2]; first compound 0.3162 µM) | relative viability ([2]; first compound 1 µM) | relative viability ([3]; first compound 0.01 µM) | relative viability ([3]; first compound 0.03162 µM) | relative viability ([3]; first compound 0.1 µM) | relative viability ([3]; first compound 0.3162 µM) | relative viability ([3]; first compound 1 µM) | relative viability ([4]; first compound 0.01 µM) | relative viability ([4]; first compound 0.03162 µM) | relative viability ([4]; first compound 0.1 µM) | relative viability ([4]; first compound 0.3162 µM) | relative viability ([4]; first compound 1 µM)
201T | 1.02 | 1.03 | 0.975 | 0.898 | 0.678 | 0.759 | 0.763 | 0.715 | 0.507 | 0.411 | 0.487 | 0.543 | 0.438 | 0.422 | 0.334 | 0.981 | 0.931 | 1.1 | 0.778 | 0.425
A549 | 0.734 | 0.624 | 0.406 | 0.152 | 0.083 | 0.25 | 0.263 | 0.29 | 0.0728 | 0.0649 | – | – | – | – | – | 0.773 | 1.01 | 0.753 | 0.236 | 0.068
A-427 | 0.875 | 0.837 | 0.717 | 0.263 | 0.153 | 0.58 | 0.566 | 0.455 | 0.274 | 0.24 | 0.7 | 0.748 | 0.542 | 0.353 | 0.241 | 0.947 | 1.08 | 0.853 | 0.424 | 0.284
ABC-1 | 0.791 | 0.965 | 0.892 | 0.395 | 0.179 | 0.851 | 1.04 | 0.849 | 0.818 | 0.232 | 0.748 | 1 | 0.845 | 0.573 | 0.34 | 1.06 | 0.951 | 0.65 | 0.5 | 0.271
BEN | 0.701 | 0.827 | – | 0.828 | 0.693 | 0.97 | 1.03 | 0.899 | 0.809 | 0.733 | 0.735 | 0.736 | 0.66 | 0.534 | 0.606 | 0.564 | 0.884 | – | 0.657 | 0.725
CAL-12T | 0.547 | 0.573 | 0.82 | 0.298 | 0.223 | 0.416 | 0.375 | 0.217 | 0.177 | 0.135 | 0.497 | 0.603 | 0.436 | 0.289 | 0.24 | 1.19 | 1.16 | 1.13 | 0.765 | 0.401
COR-L23 | 0.548 | 0.68 | 0.802 | 0.45 | 0.198 | 0.253 | 0.188 | 0.133 | 0.0874 | 0.0995 | – | – | – | – | – | 0.954 | 1.14 | 1 | 0.744 | 0.33
COR-L 105 | 0.675 | 0.51 | 0.709 | 0.644 | 0.543 | 0.614 | 0.518 | 0.526 | 0.417 | 0.352 | – | – | – | – | – | 0.926 | 1.3 | 1.02 | 1.02 | 0.645
Calu-6 | 0.751 | 0.862 | 0.964 | 0.575 | 0.362 | 0.375 | 0.343 | 0.254 | 0.127 | 0.137 | – | – | – | – | – | 0.825 | 0.922 | 0.921 | 0.41 | 0.234
ChaGo-K-1 | 1.08 | 0.888 | 0.576 | 0.306 | 0.304 | 0.361 | 0.411 | 0.348 | 0.28 | 0.229 | 0.785 | 0.824 | 0.808 | 0.692 | 0.504 | 0.781 | 0.978 | 0.8 | 0.281 | 0.21
EBC-1 | 0.189 | 0.202 | – | 0.197 | 0.194 | 0.604 | 0.671 | 0.645 | 0.419 | 0.331 | – | – | – | – | – | 0.119 | 0.107 | 0.12 | 0.102 | 0.107
EKVX | 0.868 | 0.916 | 0.891 | 0.816 | 0.414 | 0.719 | 0.563 | 0.501 | 0.244 | 0.231 | 0.607 | 0.598 | 0.544 | 0.538 | 0.237 | 1.09 | 0.711 | 0.448 | 0.237 | 0.303
EMC-BAC-2 | 0.661 | 0.527 | 0.382 | 0.2 | 0.161 | 0.35 | 0.428 | 0.404 | 0.324 | 0.221 | 0.96 | 1.05 | 1.08 | 0.607 | 0.415 | 0.918 | 1.05 | 0.612 | 0.302 | 0.238
EPLC-272H | 1.07 | 1.03 | 0.628 | 0.703 | 0.489 | 0.407 | 0.237 | 0.183 | 0.0606 | 0.111 | 0.208 | 0.192 | 0.145 | 0.114 | 0.112 | 0.626 | 0.722 | 0.552 | 0.61 | 0.255
H3255 | 0.802 | 0.841 | 0.667 | 0.537 | 0.231 | 0.491 | 0.519 | 0.495 | 0.373 | 0.344 | 0.905 | 0.819 | 0.713 | 0.55 | 0.401 | 0.974 | 0.897 | 0.603 | 0.674 | 0.457
HARA | 0.801 | 1.11 | 1.11 | 0.611 | 0.192 | 0.733 | 0.942 | 0.701 | 0.247 | 0.351 | 0.281 | 0.299 | 0.306 | 0.226 | 0.244 | 0.703 | 0.9 | 0.291 | 0.534 | 0.187
